Reference: ChEMBL document CHEMBL5055685, “Discovery of the First Potent IDO1/IDO2 Dual Inhibitors: A Promising Strategy for Cancer Immunotherapy” (J Med Chem, 2021)
Calls of active or inactive are those of the source. No cut-off for these calls is given here.

Columns and labels:
[1] = AUC (0 to infinity) in Sprague-Dawley rat at 5 mg/kg, iv; type: ADME, organism-based; parameters: time infinity, dose 5 mg/kg, route iv; conditions: Sprague-Dawley, in vivo
[2] = Clearance in Sprague-Dawley rat at 5 mg/kg, iv; type: ADME, organism-based; conditions: in vivo
[3] = Cmax in Sprague-Dawley rat at 50 mg/kg, po; type: ADME, organism-based; parameters: dose 50 mg/kg, route po; conditions: in vivo
[4] = Metabolic stability in human liver microsomes assessed as rate constant; type: ADME, Microsome
[5] = Half life in mouse liver microsomes; type: ADME, Microsome
[6] = system: Rattus norvegicus; assay: Toxicity in rat assessed as rat death at […]; type: organism-based; conditions: in vivo
[7] = system: HCT-116; assay: Antitumor immunity in BALB/c mouse xenografted with human HCT-116 cells assessed as increase in IL-2 in serum by […]; type: functional, cell-based
[8] = biological target: Tyrosine-protein kinase ABL1 (Homo sapiens) (UniProt P00519); assay: Inhibition of ABL1 (unknown origin) at 1 uM
[9] = biological target: Activin receptor type-1 (Homo sapiens) (UniProt Q04771); assay: Inhibition of ALK2 (unknown origin) at 1 uM
[10] = biological target: Bone morphogenetic protein receptor type-1A (Homo sapiens) (UniProt P36894); assay: Inhibition of ALK3 (unknown origin) at 1 uM
[11] = biological target: Calcium/calmodulin-dependent protein kinase kinase 1 (Homo sapiens) (UniProt Q8N5S9); assay: Inhibition of CAMKK1 (unknown origin) at 1 uM
[12] = biological target: Calcium/calmodulin-dependent protein kinase kinase 2 (Homo sapiens) (UniProt Q96RR4); assay: Inhibition of CAMKK2 (unknown origin) at 1 uM
Chain of Calcium/calmodulin-dependent protein kinase kinase 2 (Homo sapiens) (Q96RR4 2-588 limits assumed): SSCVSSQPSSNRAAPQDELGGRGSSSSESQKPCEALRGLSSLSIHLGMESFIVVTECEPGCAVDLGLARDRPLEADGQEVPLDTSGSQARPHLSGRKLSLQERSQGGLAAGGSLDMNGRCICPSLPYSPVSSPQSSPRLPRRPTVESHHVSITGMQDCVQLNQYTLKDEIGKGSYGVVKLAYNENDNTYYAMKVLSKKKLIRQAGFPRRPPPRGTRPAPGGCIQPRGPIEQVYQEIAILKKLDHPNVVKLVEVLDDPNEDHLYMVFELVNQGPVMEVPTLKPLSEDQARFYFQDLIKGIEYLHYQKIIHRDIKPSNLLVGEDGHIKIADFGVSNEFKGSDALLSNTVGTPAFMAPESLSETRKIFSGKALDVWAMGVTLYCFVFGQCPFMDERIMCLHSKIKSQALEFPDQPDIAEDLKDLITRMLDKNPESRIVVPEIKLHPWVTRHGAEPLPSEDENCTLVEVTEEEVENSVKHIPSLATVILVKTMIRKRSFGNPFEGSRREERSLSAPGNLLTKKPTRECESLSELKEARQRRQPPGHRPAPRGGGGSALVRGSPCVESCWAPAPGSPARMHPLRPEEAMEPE

[13] = biological target: CDK1/Cyclin E (Homo sapiens) (UniProt P06493+P24864); assay: Inhibition of CDK1/cyclinE (unknown origin) at 1 uM; type: protein-complex assay
Chain of CDK1/Cyclin E (Homo sapiens) (P06493 whole entry, looked up): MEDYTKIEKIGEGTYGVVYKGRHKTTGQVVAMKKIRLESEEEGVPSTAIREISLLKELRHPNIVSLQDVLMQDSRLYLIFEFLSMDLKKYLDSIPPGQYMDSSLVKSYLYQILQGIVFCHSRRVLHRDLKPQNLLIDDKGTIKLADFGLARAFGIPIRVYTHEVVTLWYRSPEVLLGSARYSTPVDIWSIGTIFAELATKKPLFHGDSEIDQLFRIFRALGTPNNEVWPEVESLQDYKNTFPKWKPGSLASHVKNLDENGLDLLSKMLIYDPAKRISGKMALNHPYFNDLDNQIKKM
Chain of CDK1/Cyclin E (Homo sapiens) (P24864 whole entry, looked up): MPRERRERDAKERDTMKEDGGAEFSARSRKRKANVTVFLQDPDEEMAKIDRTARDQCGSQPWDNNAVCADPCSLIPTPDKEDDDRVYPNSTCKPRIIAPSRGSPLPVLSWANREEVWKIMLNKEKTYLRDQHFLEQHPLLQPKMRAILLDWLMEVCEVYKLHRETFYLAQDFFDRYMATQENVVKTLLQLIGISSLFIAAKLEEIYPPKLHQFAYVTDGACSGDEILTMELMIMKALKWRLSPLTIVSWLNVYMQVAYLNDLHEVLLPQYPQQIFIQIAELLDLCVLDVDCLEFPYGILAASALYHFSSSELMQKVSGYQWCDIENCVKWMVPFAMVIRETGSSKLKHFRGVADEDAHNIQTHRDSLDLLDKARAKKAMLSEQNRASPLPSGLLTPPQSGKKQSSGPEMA

[14] = biological target: CDK4/Cyclin D3 (Homo sapiens) (UniProt P11802+P30281); assay: Inhibition of CDK4/cyclin-D3 (unknown origin) at 1 uM; type: protein-complex assay
[15] = biological target: Casein kinase I isoform gamma-1 (Homo sapiens) (UniProt Q9HCP0); assay: Inhibition of CK1gamma1 (unknown origin) at 1 uM
[16] = biological target: Death-associated protein kinase 2 (Homo sapiens) (UniProt Q9UIK4); assay: Inhibition of DAPK2 (unknown origin) at 1 uM
[17] = biological target: Discoidin domain-containing receptor 2 (Homo sapiens) (UniProt Q16832); assay: Inhibition of DDR2 (unknown origin) at 1 uM
Chain of Discoidin domain-containing receptor 2 (Homo sapiens) (Q16832 whole entry, the tested form may be a part): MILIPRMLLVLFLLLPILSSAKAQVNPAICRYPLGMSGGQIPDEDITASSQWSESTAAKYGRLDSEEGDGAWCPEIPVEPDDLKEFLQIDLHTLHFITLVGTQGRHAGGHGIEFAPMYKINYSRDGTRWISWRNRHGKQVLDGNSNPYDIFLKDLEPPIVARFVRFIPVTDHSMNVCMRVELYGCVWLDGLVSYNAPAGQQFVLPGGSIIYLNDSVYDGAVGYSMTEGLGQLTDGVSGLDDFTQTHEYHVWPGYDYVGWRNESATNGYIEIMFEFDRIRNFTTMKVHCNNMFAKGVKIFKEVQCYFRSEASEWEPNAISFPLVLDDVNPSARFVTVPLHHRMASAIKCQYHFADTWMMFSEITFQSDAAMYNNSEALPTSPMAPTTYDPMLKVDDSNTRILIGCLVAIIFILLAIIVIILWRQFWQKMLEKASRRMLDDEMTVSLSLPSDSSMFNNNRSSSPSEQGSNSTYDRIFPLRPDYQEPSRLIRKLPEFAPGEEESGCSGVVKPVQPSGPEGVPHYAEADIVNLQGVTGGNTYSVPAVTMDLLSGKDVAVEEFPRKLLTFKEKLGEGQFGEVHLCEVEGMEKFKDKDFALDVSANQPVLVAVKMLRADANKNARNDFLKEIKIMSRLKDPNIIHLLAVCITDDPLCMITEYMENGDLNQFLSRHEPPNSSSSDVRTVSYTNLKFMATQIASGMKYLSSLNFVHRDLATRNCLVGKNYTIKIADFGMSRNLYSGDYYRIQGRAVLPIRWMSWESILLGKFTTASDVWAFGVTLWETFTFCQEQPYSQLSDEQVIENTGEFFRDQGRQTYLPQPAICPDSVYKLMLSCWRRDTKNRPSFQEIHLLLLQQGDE

[18] = biological target: Dual specificity tyrosine-phosphorylation-regulated kinase 1B (Homo sapiens) (UniProt Q9Y463); assay: Inhibition of DYRK1B (unknown origin) at 1 uM
[19] = biological target: Epidermal growth factor receptor (Homo sapiens) (UniProt P00533); assay: Inhibition of EGFR (unknown origin) at 1 uM
[20] = biological target: Ephrin type-A receptor 8 (Homo sapiens) (UniProt P29322); assay: Inhibition of EPHA8 (unknown origin) at 1 uM
[21] = biological target: Ephrin type-B receptor 3 (Homo sapiens) (UniProt P54753); assay: Inhibition of EPHB3 (unknown origin) at 1 uM
[22] = biological target: G protein-coupled receptor kinase 4 (Homo sapiens) (UniProt P32298); assay: Inhibition of GRK4 (unknown origin) at 1 uM
[23] = biological target: Rhodopsin kinase GRK7 (Homo sapiens) (UniProt Q8WTQ7); assay: Inhibition of GRK7 (unknown origin) at 1 uM
Chain of Rhodopsin kinase GRK7 (Homo sapiens) (Q8WTQ7 whole entry): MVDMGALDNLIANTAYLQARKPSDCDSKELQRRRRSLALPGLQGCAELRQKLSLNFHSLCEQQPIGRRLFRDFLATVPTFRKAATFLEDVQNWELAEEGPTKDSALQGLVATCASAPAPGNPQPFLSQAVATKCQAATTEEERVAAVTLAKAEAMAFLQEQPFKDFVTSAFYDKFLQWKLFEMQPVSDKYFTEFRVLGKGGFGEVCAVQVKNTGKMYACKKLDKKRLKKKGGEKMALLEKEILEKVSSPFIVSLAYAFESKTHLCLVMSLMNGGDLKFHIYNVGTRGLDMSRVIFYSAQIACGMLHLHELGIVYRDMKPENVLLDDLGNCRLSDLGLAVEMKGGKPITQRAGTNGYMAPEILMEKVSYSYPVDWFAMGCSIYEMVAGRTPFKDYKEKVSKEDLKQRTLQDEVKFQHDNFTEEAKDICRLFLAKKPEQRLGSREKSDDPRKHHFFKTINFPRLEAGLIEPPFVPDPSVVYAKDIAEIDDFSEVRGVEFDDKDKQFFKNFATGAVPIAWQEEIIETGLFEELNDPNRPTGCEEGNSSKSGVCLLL

[24] = biological target: Serine/threonine-protein kinase haspin (Homo sapiens) (UniProt Q8TF76); assay: Inhibition of haspin (unknown origin) at 1 uM
[25] = biological target: Mitogen-activated protein kinase kinase kinase kinase 1 (Homo sapiens) (UniProt Q92918); assay: Inhibition of HPK1 (unknown origin) at 1 uM
[26] = biological target: Insulin receptor (Homo sapiens) (UniProt P06213); assay: Inhibition of IR (unknown origin) at 1 uM
[27] = biological target: Serine/threonine-protein kinase LATS1 (Homo sapiens) (UniProt O95835); assay: Inhibition of LATS1 (unknown origin) at 1 uM
[28] = biological target: Tyrosine-protein kinase Lck (Homo sapiens) (UniProt P06239); assay: Inhibition of LCK (unknown origin) at 1 uM
Chain of Tyrosine-protein kinase Lck (Homo sapiens) (P06239 2-509 limits assumed): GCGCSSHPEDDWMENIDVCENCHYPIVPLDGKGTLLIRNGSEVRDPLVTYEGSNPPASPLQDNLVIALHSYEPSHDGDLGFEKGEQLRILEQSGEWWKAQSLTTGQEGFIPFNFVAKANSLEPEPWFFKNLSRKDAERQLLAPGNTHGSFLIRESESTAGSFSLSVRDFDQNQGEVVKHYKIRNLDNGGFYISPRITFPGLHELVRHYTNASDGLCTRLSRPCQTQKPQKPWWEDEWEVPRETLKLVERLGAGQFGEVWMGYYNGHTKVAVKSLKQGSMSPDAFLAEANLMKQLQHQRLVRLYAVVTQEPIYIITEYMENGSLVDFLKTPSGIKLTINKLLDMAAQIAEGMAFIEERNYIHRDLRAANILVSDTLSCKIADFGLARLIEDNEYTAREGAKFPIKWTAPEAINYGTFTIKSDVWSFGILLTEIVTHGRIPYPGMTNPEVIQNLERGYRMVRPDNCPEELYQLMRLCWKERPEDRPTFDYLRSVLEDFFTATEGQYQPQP

[29] = biological target: LIM domain kinase 1 (Homo sapiens) (UniProt P53667); assay: Inhibition of LIMK1 (unknown origin) at 1 uM
[30] = biological target: Serine/threonine-protein kinase MAK (Homo sapiens) (UniProt P20794); assay: Inhibition of MAK (unknown origin) at 1 uM
[31] = biological target: Mitogen-activated protein kinase kinase kinase 3 (Homo sapiens) (UniProt Q99759); assay: Inhibition of MEKK3 (unknown origin) at 1 uM
[32] = biological target: Serine/threonine-protein kinase 4 (Homo sapiens) (UniProt Q13043); assay: Inhibition of MST1 (unknown origin) at 1 uM
[33] = biological target: Serine/threonine-protein kinase PAK 4 (Homo sapiens) (UniProt O96013); assay: Inhibition of PAK4 (unknown origin) at 1 uM
Chain of Serine/threonine-protein kinase PAK 4 (Homo sapiens) (O96013 whole entry, looked up, canonical isoform): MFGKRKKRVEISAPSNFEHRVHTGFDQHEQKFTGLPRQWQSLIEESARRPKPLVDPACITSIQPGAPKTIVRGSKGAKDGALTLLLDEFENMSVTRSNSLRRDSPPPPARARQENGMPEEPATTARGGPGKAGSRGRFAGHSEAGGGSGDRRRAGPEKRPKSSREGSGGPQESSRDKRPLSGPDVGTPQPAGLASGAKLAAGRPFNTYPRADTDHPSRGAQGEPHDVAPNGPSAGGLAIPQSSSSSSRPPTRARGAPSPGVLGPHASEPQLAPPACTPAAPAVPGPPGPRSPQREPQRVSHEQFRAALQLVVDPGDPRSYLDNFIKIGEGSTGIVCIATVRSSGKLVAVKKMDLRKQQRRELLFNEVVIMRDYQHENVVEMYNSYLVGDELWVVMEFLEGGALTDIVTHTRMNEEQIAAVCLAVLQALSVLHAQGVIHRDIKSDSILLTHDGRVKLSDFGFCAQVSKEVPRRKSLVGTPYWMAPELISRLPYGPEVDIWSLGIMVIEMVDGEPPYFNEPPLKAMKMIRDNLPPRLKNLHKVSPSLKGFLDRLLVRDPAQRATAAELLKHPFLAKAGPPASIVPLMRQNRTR

[34] = biological target: Phosphorylase b kinase gamma catalytic chain, liver/testis isoform (Homo sapiens) (UniProt P15735); assay: Inhibition of PHKgamma2 (unknown origin) at 1 uM
Chain of Phosphorylase b kinase gamma catalytic chain, liver/testis isoform (Homo sapiens) (P15735 whole entry, canonical isoform): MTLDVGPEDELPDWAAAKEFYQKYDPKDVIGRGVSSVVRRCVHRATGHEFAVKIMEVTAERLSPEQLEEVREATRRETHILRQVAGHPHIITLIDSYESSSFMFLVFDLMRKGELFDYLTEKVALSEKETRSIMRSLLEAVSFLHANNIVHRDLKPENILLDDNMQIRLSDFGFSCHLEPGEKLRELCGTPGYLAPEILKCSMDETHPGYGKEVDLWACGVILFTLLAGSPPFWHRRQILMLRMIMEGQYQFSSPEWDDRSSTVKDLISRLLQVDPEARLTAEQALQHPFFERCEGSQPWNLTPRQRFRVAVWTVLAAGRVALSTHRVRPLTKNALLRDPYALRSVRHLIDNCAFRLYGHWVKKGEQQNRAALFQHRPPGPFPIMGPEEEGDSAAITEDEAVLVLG

[35] = biological target: Protein kinase C eta type (Homo sapiens) (UniProt P24723); assay: Inhibition of PKCeta (unknown origin)at 1 uM
[36] = biological target: Serine/threonine-protein kinase N1 (Homo sapiens) (UniProt Q16512); assay: Inhibition of PKN1 (unknown origin) at 1 uM
[37] = biological target: Serine/threonine-protein kinase PLK2 (Homo sapiens) (UniProt Q9NYY3); assay: Inhibition of PLK2 (unknown origin) at 1 uM
[38] = biological target: Receptor-interacting serine/threonine-protein kinase 2 (Homo sapiens) (UniProt O43353); assay: Inhibition of RIPK2 (unknown origin) at 1 uM
[39] = biological target: Dual serine/threonine and tyrosine protein kinase (Homo sapiens) (UniProt Q6XUX3); assay: Inhibition of RIPK5 (unknown origin) at 1 uM
[40] = biological target: SRSF protein kinase 2 (Homo sapiens) (UniProt P78362); assay: Inhibition of SRPK2 (unknown origin) at 1 uM
Chain of SRSF protein kinase 2 (Homo sapiens) (P78362 whole entry, looked up): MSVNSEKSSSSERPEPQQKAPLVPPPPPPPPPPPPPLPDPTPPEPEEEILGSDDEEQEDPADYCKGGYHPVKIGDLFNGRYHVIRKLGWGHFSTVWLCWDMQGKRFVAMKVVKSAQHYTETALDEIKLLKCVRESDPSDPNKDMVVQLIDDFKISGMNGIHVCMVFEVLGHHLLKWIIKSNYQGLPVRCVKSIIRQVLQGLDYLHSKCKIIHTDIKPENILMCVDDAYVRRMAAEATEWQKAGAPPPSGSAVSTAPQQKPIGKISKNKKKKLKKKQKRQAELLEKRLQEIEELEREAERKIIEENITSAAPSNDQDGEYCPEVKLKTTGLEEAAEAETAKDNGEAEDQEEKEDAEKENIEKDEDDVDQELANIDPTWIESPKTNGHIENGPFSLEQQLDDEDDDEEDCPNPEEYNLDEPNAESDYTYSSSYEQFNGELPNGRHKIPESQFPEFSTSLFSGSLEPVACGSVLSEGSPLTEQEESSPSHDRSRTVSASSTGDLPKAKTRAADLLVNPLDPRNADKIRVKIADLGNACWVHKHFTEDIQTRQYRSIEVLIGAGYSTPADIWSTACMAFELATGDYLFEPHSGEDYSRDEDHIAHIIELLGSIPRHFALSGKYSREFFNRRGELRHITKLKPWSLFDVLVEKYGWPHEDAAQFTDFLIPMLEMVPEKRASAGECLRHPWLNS

[41] = biological target: Testis-specific serine/threonine-protein kinase 6 (Homo sapiens) (UniProt Q9BXA6); assay: Inhibition of SSTK (unknown origin) at 1 uM
[42] = biological target: Testis-specific serine/threonine-protein kinase 1 (Homo sapiens) (UniProt Q9BXA7); assay: Inhibition of STK22D (unknown origin) at 1 uM
[43] = biological target: Serine/threonine-protein kinase 25 (Homo sapiens) (UniProt O00506); assay: Inhibition of STK25 (unknown origin) at 1 uM
[44] = biological target: STE20/SPS1-related proline-alanine-rich protein kinase (Homo sapiens) (UniProt Q9UEW8); assay: Inhibition of STK39 (unknown origin) at 1 uM
[45] = biological target: Tyrosine-protein kinase Tec (Homo sapiens) (UniProt P42680); assay: Inhibition of TEC (unknown origin) at 1 uM
[46] = biological target: Tyrosine-protein kinase ZAP-70 (Homo sapiens) (UniProt P43403); assay: Inhibition of ZAP70 (unknown origin) at 1 uM

OCCOCc1cn(CCNc2nonc2/C(=N/O)Nc2ccc(F)c(Br)c2)nn1
AUC(0-inf) [1]: 3050 ng·h/mL
clearance [2]: 27.5 mL/min/kg
Cmax [3]: 1040 ng/mL
k el [4]: 0.00025 s⁻¹
half-life [5]: 43.2 min
Activity [6]: Non-Toxic
Activity [7]: Active
inhibition [8]: inactive
inhibition [9]: inactive
inhibition [10]: inactive
inhibition [11]: inactive
inhibition [12]: inactive
inhibition [13]: inactive
inhibition [14]: inactive
inhibition [15]: inactive
inhibition [16]: inactive
inhibition [17]: inactive
inhibition [18]: inactive
inhibition [19]: inactive
inhibition [20]: inactive
inhibition [21]: inactive
inhibition [22]: inactive
inhibition [23]: inactive
inhibition [24]: inactive
inhibition [25]: inactive
inhibition [26]: inactive
inhibition [27]: inactive
inhibition [28]: inactive
inhibition [29]: inactive
inhibition [30]: inactive
inhibition [31]: inactive
inhibition [32]: inactive
inhibition [33]: inactive
inhibition [34]: inactive
inhibition [35]: inactive
inhibition [36]: inactive
inhibition [37]: inactive
inhibition [38]: inactive
inhibition [39]: inactive
inhibition [40]: inactive
inhibition [41]: inactive
inhibition [42]: inactive
inhibition [43]: inactive
inhibition [44]: inactive
inhibition [45]: inactive
inhibition [46]: inactive
